{
  "source": "patent US9326507B2",
  "about": "“Pheromone composition for treating Varroa mite infestation” (Universitaet Hohenheim, priority 2013, dated 2016)",
  "test_system": "male Varroa mites",
  "assay": "mating bioassay: male response to a female deutochrysalis dummy",
  "type": "in vivo, Varroa destructor",
  "conditions": "pure substances tested at 1, 10, 100 and 1000 ng",
  "method": "Male and female Varroa mites were obtained from brood combs of heavily infested Apis mellifera colonies at the Apicultural State Institute, University of Hohenheim in Germany. Sexually mature males and freshly molted adult females as well as female deutochrysalis were collected from brood cells 8 to 9 days after capping. Female deutochrysales and freshly molted adult female mites were transferred into queen cell cups (Nicot System®, Karl Jenter, Metzingen) and kept at 28-30° C. for a maximum of 2 hours in order to prevent a decrease in vitality and mobility.\nThe responses of male Varroa mites to extracts, fractions, and pure substances were measured by using the “mating bioassay”: total extracts, fractions and pure substances were applied to a piece of filter paper (size: 1.5 mm×15 mm) with a 10 μl Hamilton syringe. The filter paper was folded in the middle and placed at the edge of the plastic cell cups (Nicot System®, Karl Jenter, Metzingen, 9 mm inner diameter) that served as a test arena. A living female deutochrysalis was placed at the bottom of the cell cup at 3.5 mm distance to the filter paper. […] After three tests, the dummies were replaced by new ones. The male responses towards the deutochrysalis were categorized as follows: (1) movement towards/around the deutochrysalis and palpating it, (2) mounting the dorsum of the deutochrysalis and (3) copulation attempts on the venter of the deutochrysalis. The duration of each of these behaviours was recorded over a period of 5 minutes using the Observer 2.0 software (Noldus Information Technology). All tests were performed at temperatures of 33-34° C. at the bottom of the test arena.\nThe extract was applied to the filter paper in doses of 2 female equivalents; in control tests the filter paper was treated with ether only. Pentane and ether fractions were tested in concentrations of 5 female equivalents in the same way. The higher concentration was applied in order to equalize possible losses of active substances during the column fractionation. Single substances that were identified from the active fraction (see 2.6) were purchased (Sigma Aldrich, GC grade), dissolved in diethyl ether and were tested in doses of 1 ng, 10 ng, 100 ng and 1000 ng.\nBehavioural data were analyzed with the SPSS 15.0 statistics software. One Way ANOVA was performed to evaluate the male response toward the female deutochrysalis while being exposed to total extracts, fractions or pure substances. Differences between groups with p<0.05 were considered statistically significant.",
  "data": [
    {"compound": "CCCCCCCC/C=C\\CCCCCCCC(=O)OCC", "note": "[ethyl oleate]", "values": [
      {"measurement": "copulatory responses / male mating behaviour to pure substances", "result": "the same trend was evident, albeit without significant differences"}
    ]},
    {"compound": "CCCCCCCCCCCCCCCC(=O)OCC", "note": "[ethyl palmitate]", "values": [
      {"measurement": "dosage of maximum copulatory responses", "result": 10, "unit": "ng"}
    ]},
    {"compound": "CCCCCCCCCCCCCCCCCC(=O)OCC", "note": "[ethyl stearate]", "values": [
      {"measurement": "dosage of maximum copulatory responses", "result": 10, "unit": "ng"}
    ]},
    {"compound": "CCCCCCCC/C=C\\CCCCCCCC(=O)O", "note": "[oleic acid]", "values": [
      {"measurement": "copulatory responses / male mating behaviour to pure substances", "result": "highest copulatory responses"},
      {"measurement": "dosage of lowest copulatory responses", "result": 1000, "unit": "ng"},
      {"measurement": "dosage of maximum copulatory responses", "result": 10, "unit": "ng"}
    ]},
    {"compound": "CCCCCCCCCCCCCCCC(=O)O", "note": "[palmitic acid]", "values": [
      {"measurement": "dosage of maximum copulatory responses", "result": 10, "unit": "ng"}
    ]},
    {"compound": "CCCCCCCCCCCCCCCCCC(=O)O", "note": "[stearic acid]", "values": [
      {"measurement": "copulatory responses / male mating behaviour to pure substances", "result": "lower compared to the other compounds"},
      {"measurement": "dosage of maximum copulatory responses", "result": 1, "unit": "ng"}
    ]}
  ]
}
